Reference: ChEMBL document CHEMBL6120969, “Distinctive Immune Signatures Driven by Structural Alterations in Desmuramylpeptide NOD2 Agonists” (J Med Chem, 2024)
The source made the active and inactive calls. The rule behind the calls is not given here.

Tests used:
[1] = Cytotoxicity against human HEK-Blue hNOD2 cells assessed as metabolic activity at 10 uM incubated for 18 hes by MTT assay; format: toxicity, cell-based; details: hek-blue hnod2, 10 µM
PBMC [2] = test: Immunomodulatory activity in human PBMC cells assessed as increase in IFN-gamma level at 2 uM incubated for 18 hrs y flow cytometry analysis; format: functional, cell-based
Method in brief: (§1)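 For 18 h at 37 °C, 5% CO2, human donor PBMCs at 1 × 10^6 cells/mL were incubated without LPS in the presence of 2 μM compound or 0.1% DMSO vehicle. Cytokines were then quantified in cell-free supernatants by flow cytometry with a LEGENDplex human immune response panel, using the kit's recombinant standards. Four independent replicates were analysed by two-way ANOVA and Tukey's test.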

PBMC [3] = test: Immunomodulatory activity in human PBMC cells assessed as increase in LPS-induced IL-12p70 level at 2 uM incubated for 18 hrs y flow cytometry analysis; format: functional, cell-based
PBMC [4] = test: Immunomodulatory activity in human PBMC cells assessed as increase in IL-6 level at 2 uM incubated for 18 hrs y flow cytometry analysis; format: functional, cell-based; method in brief: as §1
PBMC [5] = test: Immunomodulatory activity in human PBMC cells assessed as increase in IL-4 level at 2 uM incubated for 18 hrs y flow cytometry analysis; format: functional, cell-based; method in brief: as §1
[6] = Cytotoxicity against human PBMC cells at 10 uM incubated for 4 hrs; format: toxicity, cell-based
Method in brief: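 Direct cytotoxicity toward human PBMCs alone was taken as the Sytox blue-positive cell population, measured by flow cytometry on an Attune NxT with FlowJo analysis. Compound exposure was at 10 μM with 0.1% DMSO vehicle, in parallel with a K562 killing assay. Data came from duplicates in three independent biological replicates, compared by one-way ANOVA with Dunnett's test.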

PBMC [7] = test: Immunomodulatory activity in human PBMC cells assessed as increase in LPS-induced IL-10 level at 2 uM incubated for 18 hrs y flow cytometry analysis; format: functional, cell-based
Method in brief: (§2)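 Human donor PBMCs (Ficoll-Paque; 1 × 10^6 cells/mL, 500 μL, 48-well plates) were treated with compounds at 2 μM or 0.1% DMSO vehicle in the presence of LPS (10 ng/mL) for 18 h at 37 °C, 5% CO2. Cytokines in cell-free supernatants were quantified with the LEGENDplex Human Essential Immune Response Panel on a flow cytometer against kit recombinant standard curves. Four independent replicates; two-way ANOVA with Tukey's test.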

PBMC [8] = test: Immunomodulatory activity in human PBMC cells assessed as increase in TNF-alpha level at 2 uM incubated for 18 hrs y flow cytometry analysis; format: functional, cell-based; method in brief: as §1
PBMC [9] = test: Immunomodulatory activity in human PBMC cells assessed as increase in IL-10 level at 2 uM incubated for 18 hrs y flow cytometry analysis; format: functional, cell-based; method in brief: as §1
PBMC [10] = test: Immunomodulatory activity in human PBMC cells assessed as increase in IL-2 level at 2 uM incubated for 18 hrs y flow cytometry analysis; format: functional, cell-based; method in brief: as §1
PBMC [11] = test: Immunomodulatory activity in human PBMC cells assessed as increase in IL-8 level at 2 uM incubated for 18 hrs y flow cytometry analysis; format: functional, cell-based; method in brief: as §1
PBMC [12] = test: Immunomodulatory activity in human PBMC cells assessed as increase in LPS-induced IL-6 level at 2 uM incubated for 18 hrs y flow cytometry analysis; format: functional, cell-based; method in brief: as §2
PBMC [13] = test: Immunomodulatory activity in human PBMC cells assessed as increase in LPS-induced MCP-1 level at 2 uM incubated for 18 hrs y flow cytometry analysis; format: functional, cell-based; method in brief: as §2
PBMC [14] = test: Immunomodulatory activity in human PBMC cells assessed as increase in IP-10 level at 2 uM incubated for 18 hrs y flow cytometry analysis; format: functional, cell-based; method in brief: as §1
PBMC [15] = test: Immunomodulatory activity in human PBMC cells assessed as increase in TGF-beta1 level at 2 uM incubated for 18 hrs y flow cytometry analysis; format: functional, cell-based; method in brief: as §1
PBMC [16] = test: Immunomodulatory activity in human PBMC cells assessed as increase in LPS-induced IP-10 level at 2 uM incubated for 18 hrs y flow cytometry analysis; format: functional, cell-based; method in brief: as §2
PBMC [17] = test: Immunomodulatory activity in human PBMC cells assessed as increase in IL-1beta level at 2 uM incubated for 18 hrs y flow cytometry analysis; format: functional, cell-based; method in brief: as §1
[18] = Cytotoxicity against human PBMC cells at 10 uM incubated for 4 hrs in presence of MDP; format: toxicity, cell-based
PBMC [19] = test: Immunomodulatory activity in human PBMC cells assessed as increase in LPS-induced TNF-alpha level at 2 uM incubated for 18 hrs y flow cytometry analysis; format: functional, cell-based
PBMC [20] = test: Immunomodulatory activity in human PBMC cells assessed as increase in LPS-induced IFN-gamma level at 2 uM incubated for 18 hrs y flow cytometry analysis; format: functional, cell-based
PBMC [21] = test: Immunomodulatory activity in human PBMC cells assessed as increase in MCP-1 level at 2 uM incubated for 18 hrs y flow cytometry analysis; format: functional, cell-based; method in brief: as §1
PBMC [22] = test: Immunomodulatory activity in human PBMC cells assessed as increase in IL-17A level at 2 uM incubated for 18 hrs y flow cytometry analysis; format: functional, cell-based; method in brief: as §1
PBMC [23] = test: Cytotoxicity against human PBMC cells co-cultured with human K562 cells at 10 uM incubated for 4 hrs; format: functional, cell-based
Method in brief: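 Human PBMCs (4 × 10^5/well, 96-well) were pretreated 18 h with compounds at 10 μM (vehicle 0.1% DMSO). CFSE-stained K562 cells (1 × 10^4/well; effector:target 40:1) were then added for 4 h at 37 °C, 5% CO2. Cells were stained with Sytox blue and analysed on an Attune NxT flow cytometer. Killing was read as CFSE+ Sytox blue+ K562 cells. Duplicates, three independent biological replicates; one-way ANOVA with Dunnett's test.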

PBMC [24] = test: Immunomodulatory activity in human PBMC cells assessed as increase in IL-12p70 level at 2 uM incubated for 18 hrs y flow cytometry analysis; format: functional, cell-based; method in brief: as §1
PBMC [25] = test: Immunomodulatory activity in human PBMC cells assessed as increase in LPS-induced IL-1beta level at 2 uM incubated for 18 hrs y flow cytometry analysis; format: functional, cell-based

CCCCCCCCCC(=O)Oc1ccc(/C=C/C(=O)NCC(=O)N[C@H](C(=O)N[C@H](CCC(=O)OCC)C(=O)OCC)C(C)C)cc1OC
Activity [1]: Non-toxic

CCCCCCCCCCCCCCCC(=O)Oc1ccc(/C=C/C(=O)NCC(=O)N[C@H](C(=O)N[C@H](CCC(=O)OCC)C(=O)OCC)C(C)C)cc1OC
Activity [1]: Non-toxic

CCOC(=O)[C@@H](CCC(=O)NCCCCN)NC(=O)[C@@H](NC(=O)CNC(=O)/C=C/c1ccc(O)c(OC)c1)C(C)C
Activity [1]: Non-toxic

CC/C=C\C/C=C\C/C=C\CCCCCCCC(=O)Oc1ccc(/C=C/C(=O)NCC(=O)N[C@H](C(=O)N[C@H](CCC(=O)OCC)C(=O)OCC)C(C)C)cc1OC
Activity [1]: Non-toxic

CCOC(=O)CC[C@@H](NC(=O)[C@@H](NC(=O)CNC(=O)/C=C/c1ccc(OC(=O)CCCCCCCCCCCCCO)c(OC)c1)C(C)C)C(=O)OCC
Activity [1]: Non-toxic

CCCCCCCCCCCCCCCCCC(=O)Oc1ccc(/C=C/C(=O)NCC(=O)N[C@H](C(=O)N[C@H](CCC(=O)OCC)C(=O)OCC)C(C)C)cc1OC
Activity [1]: Non-toxic

CCCCC(CC)C(=O)Oc1ccc(/C=C/C(=O)NCC(=O)N[C@H](C(=O)N[C@H](CCC(=O)OCC)C(=O)OCC)C(C)C)cc1OC (stereo partly specified)
Activity [1]: Non-toxic

CCCCCC(CCCCC)C(=O)Oc1ccc(/C=C/C(=O)NCC(=O)N[C@H](C(=O)N[C@H](CCC(=O)OCC)C(=O)OCC)C(C)C)cc1OC
Activity [1]: Non-toxic

CCOC(=O)CC[C@@H](NC(=O)[C@@H](NC(=O)CNC(=O)/C=C/c1cc(OC)c(O)c(OC)c1)C(C)C)C(=O)OCC
Activity [1]: Non-toxic

CCOC(=O)[C@@H](CCC(=O)NCCCNCCCCN)NC(=O)[C@@H](NC(=O)CNC(=O)/C=C/c1ccc(O)c(OC)c1)C(C)C
Activity [1]: Non-toxic

CCOC(=O)[C@@H](CCC(=O)NCCCNCCCCNCCCN)NC(=O)[C@@H](NC(=O)CNC(=O)/C=C/c1ccc(O)c(OC)c1)C(C)C
Activity (PBMC [2]): Active
Activity (PBMC [3]): Active
Activity (PBMC [4]): Active
Activity (PBMC [5]): Active
Activity [6]: Non-toxic
Activity (PBMC [7]): Active
Activity (PBMC [8]): Active
Activity (PBMC [9]): Active
Activity (PBMC [10]): Active
Activity (PBMC [11]): Active
Activity (PBMC [12]): Active
Activity (PBMC [13]): Active
Activity (PBMC [14]): Active
Activity (PBMC [15]): Active
Activity (PBMC [16]): Active
Activity (PBMC [17]): Active
Activity [18]: Non-toxic
Activity (PBMC [19]): Active
Activity [1]: Non-toxic
Activity (PBMC [20]): Active
Activity (PBMC [21]): Active
Activity (PBMC [22]): Active
Activity (PBMC [23]): inactive
Activity (PBMC [24]): Active
Activity (PBMC [25]): Active

CCCCCCCC(=O)Oc1ccc(/C=C/C(=O)NCC(=O)N[C@H](C(=O)N[C@H](CCC(=O)OCC)C(=O)OCC)C(C)C)cc1OC
Activity [1]: Non-toxic

CCCCCC(C)C(=O)Oc1ccc(/C=C/C(=O)NCC(=O)N[C@H](C(=O)N[C@H](CCC(=O)OCC)C(=O)OCC)C(C)C)cc1OC (stereo partly specified)
Activity [1]: Non-toxic

CCCCC(CCCC)C(=O)Oc1ccc(/C=C/C(=O)NCC(=O)N[C@H](C(=O)N[C@H](CCC(=O)OCC)C(=O)OCC)C(C)C)cc1OC
Activity [1]: Non-toxic

CCCCCCC(CC)C(=O)Oc1ccc(/C=C/C(=O)NCC(=O)N[C@H](C(=O)N[C@H](CCC(=O)OCC)C(=O)OCC)C(C)C)cc1OC (stereo partly specified)
Activity [1]: Non-toxic

CCOC(=O)[C@@H](CCC(=O)OCCN1CCOCC1)NC(=O)[C@@H](NC(=O)CNC(=O)/C=C/c1ccc(O)c(OC)c1)C(C)C
Activity [1]: Non-toxic

CCCCCCCC/C=C\CCCCCCCC(=O)Oc1ccc(/C=C/C(=O)NCC(=O)N[C@H](C(=O)N[C@H](CCC(=O)OCC)C(=O)OCC)C(C)C)cc1OC
Activity [1]: Non-toxic

CCCCCC(CCC)C(=O)Oc1ccc(/C=C/C(=O)NCC(=O)N[C@H](C(=O)N[C@H](CCC(=O)OCC)C(=O)OCC)C(C)C)cc1OC (stereo partly specified)
Activity [1]: Non-toxic

CCCCCCCCCCCC(=O)Oc1ccc(/C=C/C(=O)NCC(=O)N[C@H](C(=O)N[C@H](CCC(=O)OCC)C(=O)OCC)C(C)C)cc1OC
Activity (PBMC [2]): Active
Activity (PBMC [3]): Active
Activity (PBMC [4]): Active
Activity (PBMC [5]): Active
Activity [6]: Non-toxic
Activity (PBMC [7]): Active
Activity (PBMC [8]): Active
Activity (PBMC [9]): Active
Activity (PBMC [10]): Active
Activity (PBMC [11]): Active
Activity (PBMC [12]): Active
Activity (PBMC [13]): Active
Activity (PBMC [14]): Active
Activity (PBMC [15]): Active
Activity (PBMC [16]): Active
Activity (PBMC [17]): Active
Activity (PBMC [19]): Active
Activity (PBMC [20]): Active
Activity (PBMC [21]): Active
Activity (PBMC [22]): Active
Activity (PBMC [23]): inactive
Activity (PBMC [24]): Active
Activity (PBMC [25]): Active

CCCCCCCCCCCCCC(=O)Oc1ccc(/C=C/C(=O)NCC(=O)N[C@H](C(=O)N[C@H](CCC(=O)OCC)C(=O)OCC)C(C)C)cc1OC
Activity [1]: Non-toxic

CCCCC/C=C\C/C=C\C/C=C\CCCCC(=O)Oc1ccc(/C=C/C(=O)NCC(=O)N[C@H](C(=O)N[C@H](CCC(=O)OCC)C(=O)OCC)C(C)C)cc1OC
Activity [1]: Non-toxic

CCCCC/C=C\C/C=C\CCCCCCCC(=O)Oc1ccc(/C=C/C(=O)NCC(=O)N[C@H](C(=O)N[C@H](CCC(=O)OCC)C(=O)OCC)C(C)C)cc1OC
Activity [1]: Non-toxic

CCOC(=O)CC[C@@H](NC(=O)[C@@H](NC(=O)CNC(=O)/C=C/c1ccc(OC(=O)CCCC2CCCCC2)c(OC)c1)C(C)C)C(=O)OCC
Activity [1]: Non-toxic

CC/C=C\C/C=C\C/C=C\C/C=C\C/C=C\C/C=C\CCC(=O)Oc1ccc(/C=C/C(=O)NCC(=O)N[C@H](C(=O)N[C@H](CCC(=O)OCC)C(=O)OCC)C(C)C)cc1OC
Activity [1]: Non-toxic

CCCCCC(=O)Oc1ccc(/C=C/C(=O)NCC(=O)N[C@H](C(=O)N[C@H](CCC(=O)OCC)C(=O)OCC)C(C)C)cc1OC
Activity [1]: Non-toxic
